Patent publication US20250230193A1, “CYCLIC COMPOUND HAVING SELECTIVE KRAS INHIBITORY EFFECT ON HRAS AND NRAS” (CHUGAI SEIYAKU KABUSHIKI KAISHA, priority 2022, published 2025)
Where a SMILES comes first, the peptide text is derived from it. Bridges are numbered along the chain shown (N, C = ends). [ ]: non-standard residue; d: D form. The star is where a group is joined. hPhe(3,5-F2-4-CF3) = N[C@@H](CCc1cc(F)c(C(F)(F)F)c(F)c1)C(=O)O; hPhe(3-Cl-4-CF3) = N[C@@H](CCc1ccc(C(F)(F)F)c(Cl)c1)C(=O)O; NPrPhe(4-CF3) = CCCN[C@@H](Cc1ccc(C(F)(F)F)cc1)C(=O)O; NMeAbu(4,4,4-F3) = CN[C@@H](CC(F)(F)F)C(=O)O; NMeGly(cPent) = CN[C@H](C(=O)O)C1CCCC1; Hyp = O=C(O)[C@@H]1C[C@@H](O)CN1; NMeD = CN[C@@H](CC(=O)O)C(=O)O; NMeL = CN[C@@H](CC(C)C)C(=O)O; Morpholide = C1CN(*)CCO1; Ac5c = NC1(C(=O)O)CCCC1; Aze = O=C(O)[C@@H]1CCN1; Ac4c = NC1(C(=O)O)CCC1; NEtG = CCNCC(=O)O; Sar = CNCC(=O)O

Tests used:
[1] = target: GDP-bound NRAS wild-type protein (Homo sapiens, UniProt P01111); assay: Binding to NRAS by surface plasmon resonance (SPR), Single Cycle Kinetics
Sequence of GDP-bound NRAS wild-type protein (P01111 whole entry): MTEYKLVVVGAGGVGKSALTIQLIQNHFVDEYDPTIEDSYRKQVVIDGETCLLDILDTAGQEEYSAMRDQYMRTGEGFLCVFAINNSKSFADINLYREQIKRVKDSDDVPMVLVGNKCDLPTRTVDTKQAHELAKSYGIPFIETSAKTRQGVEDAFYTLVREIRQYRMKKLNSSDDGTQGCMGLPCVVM

[2] = target: GDP-bound HRAS wild-type protein (Homo sapiens, UniProt P01112); assay: Binding to HRAS by surface plasmon resonance (SPR), Single Cycle Kinetics
Sequence of GDP-bound HRAS wild-type protein (P01112 whole entry): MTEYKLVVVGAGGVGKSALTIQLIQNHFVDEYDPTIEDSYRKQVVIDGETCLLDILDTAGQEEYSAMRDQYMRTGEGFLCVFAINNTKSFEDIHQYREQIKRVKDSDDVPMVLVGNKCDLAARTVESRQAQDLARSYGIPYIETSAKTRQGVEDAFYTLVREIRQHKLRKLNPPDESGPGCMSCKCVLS

[3] = KD ratio, GDP-bound NRAS wild-type vs GDP-bound KRAS wild-type, SPR
[4] = KD ratio, GDP-bound HRAS wild-type vs GDP-bound KRAS wild-type, SPR
[5] = SPR, GDP-bound NRAS wild-type vs GDP-bound KRAS wild-type
[6] = SPR, GDP-bound HRAS wild-type vs GDP-bound KRAS wild-type

## CCCN1C(=O)[C@@H]2CCN2C(=O)CN(C)C(=O)[C@H]([C@@H](C)CC)NC(=O)[C@H](CC(C)C)N(C)C(=O)C[C@@H](C(=O)N2CCOCC2)N(C)C(=O)[C@H](CC(F)(F)F)N(C)C(=O)C2(CCCC2)NC(=O)[C@@H]2CCCN2C(=O)[C@H](CCc2cc(F)c(C(F)(F)F)c(F)c2)NC(=O)CN(C)C(=O)[C@@H]1Cc1ccc(C(F)(F)F)cc1 [PP0803] ([NMeL]I[Sar][Aze][NPrPhe(4-CF3)][Sar][hPhe(3,5-F2-4-CF3)]P[Ac5c][NMeAbu(4,4,4-F3)][NMeD]-Morpholide; lactam N-11)
[1]; KD ratio NRAS/KRAS, SPR
  NRAS/KRAS (ratio of KD value with respect to GDP-bound NRAS wild-type protein to KD value with respect to KRAS): C (A compound having a KD ratio of 0.1 or more and less than 3 is denoted as C)
[2]; KD ratio HRAS/KRAS, SPR
  HRAS/KRAS (ratio of KD value with respect to GDP-bound HRAS wild-type protein to KD value with respect to KRAS): B (a compound having 3 or more and less than 10 is denoted as B)

## CCCN1C(=O)CN(C)C(=O)CN(CC)C(=O)[C@H]([C@@H](C)CC)NC(=O)[C@H](CC(C)C)N(C)C(=O)C[C@@H](C(=O)N2CCOCC2)N(C)C(=O)[C@H](C2CCCC2)N(C)C(=O)C2(CCC2)NC(=O)[C@@H]2C[C@@H](OCC)CN2C(=O)[C@H](CCc2ccc(C(F)(F)F)c(Cl)c2)NC(=O)CN(C)C(=O)[C@@H]1Cc1ccc(C(F)(F)F)cc1 [PP0401] ([NMeL]I[NEtG][Sar][NPrPhe(4-CF3)][Sar][hPhe(3-Cl-4-CF3)][Hyp](Et)[Ac4c][NMeGly(cPent)][NMeD]-Morpholide; lactam N-11)
[1]; KD ratio NRAS/KRAS, SPR
  NRAS/KRAS (ratio of KD for GDP-bound NRAS wild-type to KD for KRAS): B (a compound having 3 or more and less than 10 is denoted as B)
[2]; KD ratio HRAS/KRAS, SPR
  HRAS/KRAS (ratio of KD for GDP-bound HRAS wild-type to KD for KRAS): B (a compound having 3 or more and less than 10 is denoted as B)

## CCO[C@@H]1C[C@H]2C(=O)NC3(CCC3)C(=O)N(C)[C@@H](C3CCCC3)C(=O)N(C)[C@H](C(=O)N(C)CC)CC(=O)N(C)[C@@H](C3CC3)C(=O)N[C@@H]([C@@H](C)CC)C(=O)N(C)CC(=O)N(C)[C@H]3C/C=C\CCN(C3=O)[C@@H](Cc3ccc(C(F)(F)F)cc3)C(=O)N(C)CC(=O)N[C@@H](CCc3ccc(C(F)(F)F)c(OC)c3)C(=O)N2C1 [PP2021]
[1]; [3]
  NRAS/KRAS (ratio of KD value for NRAS to KD value for KRAS): A (a compound having 10 or more and less than 20 is denoted as A)
[2]; [4]
  HRAS/KRAS (ratio of KD value for HRAS to KD value for KRAS): B (a compound having 3 or more and less than 10 is denoted as B)

## CC[C@H](C)[C@@H]1NC(=O)[C@H](CC)N(C)C(=O)C[C@@H](C(=O)N(C)C)N(C)C(=O)[C@H](C2CCCC2)N(C)C(=O)C2(CCC2)NC(=O)[C@@H]2C[C@@H](OC)CN2C(=O)[C@H](CCc2cc(F)c(C(F)(F)F)c(F)c2)NC(=O)CN(C)C(=O)[C@H](Cc2ccc(C(F)(F)F)cc2)N2CC/C=C\C[C@@H](C2=O)N(C)C(=O)CN(C)C1=O [PP1130]
[1]; [3]
  NRAS/KRAS (ratio of KD value with respect to NRAS to KD value with respect to KRAS): A (a compound having 10 or more and less than 20 is denoted as A)
[2]; [4]
  HRAS/KRAS (ratio of KD value with respect to HRAS to KD value with respect to KRAS): B (a compound having 3 or more and less than 10 is denoted as B)

## CCCOC[C@H]1C(=O)N[C@@H]([C@@H](C)CC)C(=O)N(C)CC(=O)N(C)[C@H]2C/C=C\CCN(C2=O)[C@@H](Cc2ccc(C)cc2)C(=O)N(C)CC(=O)N[C@@H](CCc2cc(F)c(C(F)(F)F)c(F)c2)C(=O)N2C[C@H](C)C[C@H]2C(=O)NC2(CCCC2)C(=O)N(C)[C@@H](C2CCCC2)C(=O)N(C)[C@H](C(=O)N(C)C)CC(=O)N1C [PP2225]
[1]; [5]
  NRAS/KRAS (ratio of KD value with respect to NRAS to KD value with respect to KRAS): A (a compound having 10 or more and less than 20 is denoted as A)
[2]; [6]
  HRAS/KRAS (ratio of KD value with respect to HRAS to KD value with respect to KRAS): A (a compound having 10 or more and less than 20 is denoted as A)

## C=CCN1CC(=O)N(C)[C@H]2C/C=C\CCN(C2=O)[C@@H](Cc2ccc(C)cc2)C(=O)N(C)CC(=O)N[C@@H](CCc2ccc(C(F)(F)F)c(OC)c2)C(=O)N2C[C@H](OCC)C[C@H]2C(=O)NC2(CC(C)(C)C2)C(=O)N(C)[C@@H](C2CCCC2)C(=O)N(C)[C@H](C(=O)N(C)C)CC(=O)N(C)[C@@H](CCC)C(=O)N[C@@H]([C@@H](C)CC)C1=O [PP2098]
[1]; [5]
  NRAS/KRAS (ratio of KD value with respect to NRAS to KD value with respect to KRAS): A (a compound having 10 or more and less than 20 is denoted as A)
[2]; [6]
  HRAS/KRAS (ratio of KD value with respect to HRAS to KD value with respect to KRAS): A (a compound having 10 or more and less than 20 is denoted as A)

## CCO[C@@H]1C[C@H]2C(=O)N(C)C3(CC(C)(C)C3)C(=O)N(C)[C@@H](C(CC)CC)C(=O)N(C)[C@H](C(=O)N(C)C)CC(=O)N(C)[C@@H](COC)C(=O)N[C@@H]([C@@H](C)CC)C(=O)N(C)CC(=O)N(C)[C@H]3C/C=C\CCN(C3=O)[C@@H](Cc3ccc(C)cc3)C(=O)N(C)CC(=O)N[C@@H](CCc3ccc(Cl)c(Cl)c3)C(=O)N2C1 [PP2810]
[1]; KD ratio NRAS/KRAS, class symbols
  NRAS/KRAS (ratio of KD value with respect to GDP-bound NRAS wild-type protein to KD value with respect to KRAS): AA (a compound having 20 or more is denoted as AA)
[2]; KD ratio HRAS/KRAS, class symbols
  HRAS/KRAS (ratio of KD value with respect to GDP-bound HRAS wild-type protein to KD value with respect to KRAS): A (a compound having 10 or more and less than 20 is denoted as A)
